# From patent US10166237B2, “Compounds and methods for inducing chondrogenesis” (The Scripps Research Institute, priority 2011, dated 2019)
# Test system: primary bovine chondrocytes
# Assay: inhibition of cytokine-induced nitric oxide release (Greiss reaction)
# Format: cell-based
# Conditions: Bos taurus, Chondrocyte; second value of the cell (after the slash); TNFα and oncostatin M, 48 hours; read-out: NO INHIBTION μM IC50
# Description: In the screen, hMSCs were used as a surrogate to future targeting of the resident MSCs with the cartilage joint. It was in that setting upon which we identified PRO1. In a joint injury, the primary cell type a therapeutic would have contact with is the chondrocyte. Although cartilage or chondrocyte-targeted screening has not lead to the development of a successful drug modifying osteoarthritis drug (DMOAD) to date, it is believed that a stem cell-based therapeutic would protect and even repair the existing chondrocytes. Therefore, protection of the articular chondrocytes and cartilage from a mature bovine knee was assessed. PRO1 and its analogues were incubated with primary bovine chondrocytes or cartilage explants cultures grown in the presence of TNFα and oncostatin M to mimic the cytokine-induced damage that can occur during OA. In the presence of the cytokine cocktail, in vitro cultured primary chondrocytes released 4-5 fold more nitric oxide (NO) than the untreated chondrocytes (50 μM vs 10 μM) as measured by the Greiss reaction. In cells treated with the cytokine cocktail and PRO1, the small molecule could effectively block the release of NO by up to 70% FIG. 2C). Similarly, in ex vivo treated cartilage explants, cytokine-induced release of glycosaminoglycans (GAG) was reduced by up to 60% by PRO1 (FIG. 2D). Finally, hMSC were grown in pellet culture for 21 days.
# Primary hMSCs were plated (10,000/well) in 384-well plates and cultured for 18 days. The cells were fixed with 4% formalin, permeabilized with triton (0.5%), digested with 0.5 mg/ml collagenase II to unwind the collagen fibrils, and then immunostained with an antibody recognizing type II collagen. DAPI (2 μg/ml) was added to visualize the nuclei. The chondrogenic nodules stained positive for type II collagen but lacked expression of type X collagen and osteocalcin, markers for chondrocyte hypertrophy and osteoblasts, respectively (not shown). 10,000 hMSCs (passages 3-5) were plated in Greiner 384-well low-bottom plates on day 1. The cells were allowed to adhere and stimulated for 48 hrs (days 2-3) with the indicated stimuli in MSC growth media (Millipore). The media was then removed and replaced with serum-free DMEM for an additional 16 days. This media was replenished on days 10 and 15 of the assay. Primary bovine chondrocytes were isolated from the articular surfaces from mature knees. After one week of culture, 8,500 cells were trypsinized and plated in Greiner 384-well white clear-bottom plates in growth media. […] 20 μl of the supernatant was mixed with 20 μl of the Greiss reagent and quantitated at 540 nm as described by the Promega kit instructions. Bovine cartilage explants (cut in circular explants in a 96 well plate) were cultured in the presence of 20 ng/ml TNFα and 10 ng/ml oncostatin M to induce GAG release for 72 hours (FIG. 2D). PRO1 was added at the indicated concentrations during the entire 72 hrs. […] Parafin sections were hydrated, incubated in low pH Antigen unmasking solution (Vector) at 90 C for 10 minutes, permeabilized with 0.1% collagenase II (only for the sections stained with type II collagen) for 10 minutes, blocked with CAS block for 10 minutes and then incubated with the primary antibody (type II collagen, aggrecan or Timp1) antibody (Abcam) overnight at 4 C. The antigens were visualized through standard ABC detection methods and developed with DAB. Representative of 3 sections stained/treatment group (independent experiments).
row,SMILES,IC50
1,Cc1ccc(Oc2ccc(NC(=O)c3ccccc3C(=O)O)cc2)cc1,> 10 µM
2,O=C(O)c1ccc(C(=O)Nc2ccc(O)cc2)c(C(=O)O)c1,> 10 µM
3,O=C(O)c1ccccc1C(=O)Nc1ccc(S(=O)(=O)NCc2ccccc2)cc1,> 10 µM
4,C=C(C)CS(=O)(=O)c1ccc(NC(=O)c2ccccc2C(=O)O)cc1,0.925 µM
5,CCCCCOc1ccc(NC(=O)c2ccccc2C(=O)O)cc1,> 10 µM
6,O=C(O)c1cc(Cl)c(Cl)cc1C(=O)Nc1ccc(Cl)cc1,> 10 µM
7,C#CCOC(=O)c1ccccc1C(=O)Nc1ccc(Br)cc1,> 10 µM
8,Cc1ccc2nc(-c3ccc(NC(=O)c4ccccc4C(=O)O)cc3)sc2c1,0.987 µM
9,O=C(O)c1ccc(NC(=O)c2ccccc2C(=O)O)c(C(=O)O)c1,> 10 µM
10,O=C(Nc1ccc(Cc2ccccc2)cc1)c1cc(Cl)cc(Cl)c1C(=O)O,> 10 µM
11,COc1ccc(NC(=O)c2ccccc2C(=O)Oc2ccc(OC)cc2)cc1,> 10 µM
12,O=C(O)c1ccccc1C(=O)Nc1ccc(-c2csc(-c3ccccc3)n2)cc1,> 10 µM
13,C=CCOC(=O)c1ccccc1C(=O)Nc1ccc(I)cc1,> 10 µM
14,CC1COCCN1C(=O)c1ccc(NC(=O)c2ccccc2C(=O)O)cc1 (centres unmarked),2.64 µM
15,COC(=O)c1ccccc1C(=O)Nc1ccccc1,> 10 µM
16,COc1ccc(NC(=O)c2cc(Cl)c(Cl)cc2C(=O)O)cc1,> 10 µM
17,O=C(O)c1ccccc1C(=O)Nc1ccc(Oc2ccc3ccccc3c2)cc1,> 10 µM
18,CC(=O)Nc1ccc(NC(=O)c2ccccc2C(=O)O)cc1,> 10 µM
19,O=C(Nc1ccccc1)c1ccccc1C(=O)OCc1ccc([N+](=O)[O-])cc1,> 10 µM

# Test system: human mesenchymal stem cells (hMSCs)
# Assay: chondrogenic nodule formation by hMSCs (high throughput screen)
# Format: cell-based
# Conditions: not given
# Description: The primary screening assay was based upon the development of chondrogenic nodules. Chondrocytes can grow in monolayer in vitro, but to more closely mimic their native environment in the joint, the cells are routinely cultured in non-adherent conditions such as in pellet cultures or alginate bead suspensions.
# In the actual screen of a library of 22,000 structurally diverse heterocycles, 10^4 primary hMSCs were plated in 384 well plates in serum free DMEM. The cells were treated with 5 μM of each compound and incubated for 4 days. […] To facilitate high throughput imaged-based detection, the chondrogenic nodules were stained with […]. The Nile Red stained nodules were quantified on an Acumen eX3 (high content imaging device) by excitation with a 488 laser for rapid detection of the nodules.
# Primary hMSCs grown in a 96 well Greiner plates (50,000/well) were incubated for 4 days in the presence of the 5 uM of each DMSO or 100 nM of PRO1. On day 4, the cells were fixed with 4% formalin for 10 minutes, washed and stained with 1 μg/ml of Rhodamine B for 2 hours at room temperature.
row,SMILES,Activity (chondrogenic nodules formed in % of cells)
1,N#Cc1ccc(NC(=O)Nc2ccccc2C(=O)O)cc1 [Compound R10],** (chondrogenic nodules formed in at least 25% but less than 50% of cells)
2,N#Cc1cccc(NC(=O)c2ccccc2C(=O)O)c1 [Compound N19],*** (chondrogenic nodules formed in at least 50% but less than 75% of cells)
3,O=C(O)c1ccccc1C(=O)Nc1ccc(-c2ncc[nH]2)cc1 [PM18],** (chondrogenic nodules formed in at least 25% but less than 50% of cells)
4,N#CC1CCC(NC(=O)c2ccccc2C(=O)O)CC1 (centres unmarked) [Compound N30],** (chondrogenic nodules formed in at least 25% but less than 50% of cells)
5,"N#Cc1ccc(NC(=O)c2cc(C#N)ccc2C(=O)O)cc1 [Compound B03, sodium 4-cyano-2-[(4-cyanophenyl)carbamoyl]benzoate]",*** (chondrogenic nodules formed in at least 50% but less than 75% of cells)
6,N#Cc1ccc(NC(=O)c2c(C(=O)O)cccc2C(=O)O)cc1 [Compound B12],** (chondrogenic nodules formed in at least 25% but less than 50% of cells)
7,NS(=O)(=O)c1cccc(NC(=O)c2ccccc2C(=O)O)c1 [Compound N17],** (chondrogenic nodules formed in at least 25% but less than 50% of cells)
8,O=C(O)c1ccc(N2C(=O)c3ccccc3C2=O)cc1 [MS29],*** (chondrogenic nodules formed in at least 50% but less than 75% of cells)
9,O=C(O)c1ccccc1C(=O)Nc1ccc(N2CCOCC2)cc1 [Compound N28],** (chondrogenic nodules formed in at least 25% but less than 50% of cells)
10,O=C(O)c1cccc(NC(=O)c2ccccc2C(=O)O)c1 [Compound N14],** (chondrogenic nodules formed in at least 25% but less than 50% of cells)
11,N#Cc1ccc(NC(=O)c2ccc(C#N)cc2C(=O)O)cc1 [Compound B02],** (chondrogenic nodules formed in at least 25% but less than 50% of cells)
12,O=C(O)c1ccccc1NC(=O)c1ccccc1C(=O)O [Compound N13],** (chondrogenic nodules formed in at least 25% but less than 50% of cells)
13,O=C(O)c1ccccc1C(=O)Nc1ccc(-c2nn[nH]n2)cc1 [PA06],*** (chondrogenic nodules formed in at least 50% but less than 75% of cells)
14,O=C(O)c1ccccc1C(=O)Nc1ccc(S(=O)(=O)O)cc1 [PA07],*** (chondrogenic nodules formed in at least 50% but less than 75% of cells)
15,N#Cc1ccc(NC(=O)c2cccnc2C(=O)O)cc1 [Compound B20],** (chondrogenic nodules formed in at least 25% but less than 50% of cells)
16,O=C(NO)c1ccc(NC(=O)c2ccccc2C(=O)O)cc1 [PA02],** (chondrogenic nodules formed in at least 25% but less than 50% of cells)

row,SMILES,Activity (chondrogenic nodules formed in % of cells)
1,O=C(O)c1ccccc1C(=O)Nc1cnc(-c2ccccc2)s1 [Compound N45],*** (chondrogenic nodules formed in at least 50% but less than 75% of cells)
2,O=C(O)c1ccccc1C(=O)Nc1nc(-c2ccccc2)co1 [Compound N38],** (chondrogenic nodules formed in at least 25% but less than 50% of cells)
3,N#Cc1ccc(NC(=O)c2ccccc2S(N)(=O)=O)cc1 [Compound A23],** (chondrogenic nodules formed in at least 25% but less than 50% of cells)
4,O=C(O)c1ccccc1CNC(=O)c1ccccc1C(=O)O [MS01],*** (chondrogenic nodules formed in at least 50% but less than 75% of cells)
5,N#Cc1cccc2[nH]c(-c3ccccc3C(=O)O)nc12 [Compound R01],** (chondrogenic nodules formed in at least 25% but less than 50% of cells)
6,N#Cc1ccc(CNC(=O)c2ccccc2C(=O)O)cc1 [MS06],** (chondrogenic nodules formed in at least 25% but less than 50% of cells)
7,O=C(O)c1ccccc1C(=O)Nc1ccccc1CO [Compound N20],** (chondrogenic nodules formed in at least 25% but less than 50% of cells)
8,O=C(O)c1ccccc1C(=O)Nc1ccccc1OC(F)F [Compound N04],*** (chondrogenic nodules formed in at least 50% but less than 75% of cells)
9,O=C(O)c1ccccc1C(=O)Nc1cccc(OC(F)F)c1 [Compound N05],** (chondrogenic nodules formed in at least 25% but less than 50% of cells)
10,N#Cc1ccc(NC(=O)c2ccccc2NC(N)=O)cc1 [Compound A12],** (chondrogenic nodules formed in at least 25% but less than 50% of cells)
11,CNS(=O)(=O)c1ccccc1C(=O)Nc1ccc(C#N)cc1 [Compound A24],** (chondrogenic nodules formed in at least 25% but less than 50% of cells)
12,N#Cc1ccc(N2Cc3ccccc3C2=O)cc1 [MS26],** (chondrogenic nodules formed in at least 25% but less than 50% of cells)
13,COC(=O)Nc1ccccc1C(=O)Nc1ccc(C#N)cc1 [Compound A11],** (chondrogenic nodules formed in at least 25% but less than 50% of cells)
14,N#Cc1ccc(N2C(=O)c3ccccc3C2=O)cc1 [MS28],** (chondrogenic nodules formed in at least 25% but less than 50% of cells)
15,O=C(O)c1ccccc1C(=O)Nc1cncs1 [Compound N42],*** (chondrogenic nodules formed in at least 50% but less than 75% of cells)
